Assay results as given in the NIST ThermoML archive (doi:10.1021/je400535t).
Where “and” joins values, the source holds several entries; their conditions need not be identical. Equal entries are not always repeated.

Assay: molar heat capacity at constant pressure
Conditions: 101.33 kPa, Crystal, Small (less than 1 g) adiabatic calorimetry

O=C([O][Sb]([O]C(=O)C12CC3CC(CC(C3)C1)C2)([c]1ccccc1)([c]1ccccc1)[c]1ccccc1)C12CC3CC(CC(C3)C1)C2
Conditions	molar heat capacity at constant pressure
139.88 K	353.9 J/K/mol
140 K	356 J/K/mol
141.88 K	360.2 J/K/mol
143.86 K	365 J/K/mol
145.81 K	369.5 J/K/mol
147.78 K	373.9 J/K/mol
149.76 K	378.3 J/K/mol
150 K	378.8 J/K/mol
152.23 K	383.7 J/K/mol
155.2 K	391.3 J/K/mol
158.16 K	397.8 J/K/mol
160 K	401.7 J/K/mol
161.11 K	404.3 J/K/mol
164.04 K	411.2 J/K/mol
166.97 K	417.6 J/K/mol
169.88 K	424.5 J/K/mol
170 K	424.6 J/K/mol
172.78 K	430.6 J/K/mol
175.68 K	437 J/K/mol
178.57 K	443.5 J/K/mol
180 K	447.4 J/K/mol
181.43 K	450.4 J/K/mol
184.29 K	457.3 J/K/mol
187.14 K	463.9 J/K/mol
189.9 K	470 J/K/mol
190 K	470.3 J/K/mol
192.72 K	477.1 J/K/mol
195.53 K	483.7 J/K/mol
198.33 K	489.7 J/K/mol
200 K	493.6 J/K/mol
201.12 K	496.2 J/K/mol
203.89 K	503 J/K/mol
209.43 K	515.8 J/K/mol
210 K	517.7 J/K/mol
212.2 K	523 J/K/mol
214.96 K	529.5 J/K/mol
217.72 K	536.6 J/K/mol
220 K	542.3 J/K/mol
220.47 K	543.8 J/K/mol
223.23 K	550 J/K/mol
225.98 K	556.9 J/K/mol
228.73 K	564.4 J/K/mol
230 K	567.3 J/K/mol
231.48 K	571.2 J/K/mol
234.15 K	576.4 J/K/mol
236.89 K	583.6 J/K/mol
239.63 K	590.6 J/K/mol
240 K	591.6 J/K/mol
242.35 K	597.2 J/K/mol
245.08 K	603.8 J/K/mol
247.81 K	610.3 J/K/mol
250 K	615.4 J/K/mol
250.54 K	617 J/K/mol
253.26 K	623.5 J/K/mol
255.99 K	630.5 J/K/mol
258.71 K	636.5 J/K/mol
260 K	639.5 J/K/mol
261.43 K	643.1 J/K/mol
264.15 K	650.3 J/K/mol
266.87 K	656.1 J/K/mol
269.6 K	662.2 J/K/mol
270 K	664 J/K/mol
272.32 K	669 J/K/mol
275.04 K	675.8 J/K/mol
277.75 K	683.5 J/K/mol
280 K	689.1 J/K/mol
280.46 K	690.8 J/K/mol
283.18 K	697.8 J/K/mol
285.9 K	703.7 J/K/mol
288.62 K	711.2 J/K/mol
290 K	714.3 J/K/mol
291.34 K	717.9 J/K/mol
294.06 K	724.7 J/K/mol
296.83 K	732.2 J/K/mol
298.15 K	734.7 J/K/mol
299.59 K	739 J/K/mol
300 K	739.3 J/K/mol
302.36 K	745.1 J/K/mol
305.06 K	750.5 J/K/mol
307.66 K	756.7 J/K/mol
310 K	763.8 J/K/mol
310.21 K	763.5 J/K/mol
312.71 K	769.8 J/K/mol
315.15 K	776 J/K/mol
317.53 K	781.5 J/K/mol
319.66 K	787.9 J/K/mol
320 K	787.8 J/K/mol
321.94 K	792.5 J/K/mol
324.16 K	798.1 J/K/mol
326.33 K	802.6 J/K/mol
328.44 K	808.3 J/K/mol
330 K	811.6 J/K/mol
330.51 K	813 J/K/mol
332.48 K	818.5 J/K/mol
334.44 K	823.2 J/K/mol
336.34 K	827.3 J/K/mol
338.2 K	831.4 J/K/mol
340 K	835.5 J/K/mol and 835.4 J/K/mol
341.76 K	839.5 J/K/mol
343.47 K	842.9 J/K/mol
345 K	846.6 J/K/mol
346.75 K	850.4 J/K/mol
348.1 K	853.8 J/K/mol
349.45 K	857 J/K/mol
350 K	859 J/K/mol
350.59 K	860.6 J/K/mol
352.03 K	864 J/K/mol
353.43 K	868 J/K/mol
360 K	882 J/K/mol
370 K	904 J/K/mol
380 K	926 J/K/mol
390 K	949 J/K/mol
400 K	972 J/K/mol
410 K	996 J/K/mol
420 K	1020 J/K/mol
430 K	1044 J/K/mol
440 K	1067 J/K/mol
450 K	1091 J/K/mol
460 K	1118 J/K/mol
470 K	1152 J/K/mol
480 K	1201 J/K/mol
490 K	1251 J/K/mol
498 K	1289 J/K/mol
